Measured values as given in patent publication EP4782440A9, “PSMA COMPOUND, AND PHARMACEUTICAL COMPOSITION CONTAINING SAME AND USE THEREOF” (VITSGEN THERAPEUTICS INC., priority 2023, dated 2025).

Tested on: LnCaP cells
Assay: LnCaP cell uptake and internalization
Format: cell-based
Conditions: Table 4, 177Lu-labelled, 37 °C, 45 min
Excerpt: Table 4. Conditions and results of LnCaP cell uptake
wherein [formula] Table 5. Detailed results of LnCaP cell uptake

O=C(O)CC[C@H](NC(=O)N[C@@H](CCCCNC(=O)[C@H](Cc1ccc2ccccc2c1)NC(=O)[C@H]1CC[C@H](CNC(=O)CN2CCN(CC(=O)O)CCN(CC(=O)O)CCN(CC(=O)O)CC2)CC1)C(=O)O)C(=O)O [VWT001500, PSMA-617]
Cellular uptake results, internalization rate%: 9.57%
Cellular uptake results, uptake rate%: 1.01%
